Earlier results in article PMC8617944, “Preclinical Pharmacokinetics and Acute Toxicity in Rats of 5-{[(2E)-3-Bromo-3-carboxyprop-2-enoyl]amino}-2-hydroxybenzoic Acid: A Novel 5-Aminosalicylic Acid Derivative with Potent Anti-Inflammatory Activity” (Molecules, 2021).

Legend:
[1] = design: method as in ref 32, 33 = [32]; doi:10.1016/j.arabjc.2016.12.026; 32. Cabrera Pérez L.C. Gutiérrez Sánchez M. Mendieta Wejebe J.E. Hernández Rodríguez M. Fragoso Vázquez M.J. Salazar J.R. Correa Basurto J. Padilla Martínez I.I. Rosales Hernández M.C. Novel 5-aminosa || [33]; 33. Correa Basurto J. Rosales Hernández M.C. Mendieta Wejebe J.E. Trujillo Ferrara J.G. Padilla Martínez I.I. Ramírez Durán L.A. Alemán González Duhart D. Síntesis de un derivado del ácido 5-aminosali; details: 0.408 mM; cited from earlier work
rats = details: rat, in vivo, po; cited from earlier work

For Nc1ccc(O)c(C(=O)O)c1 [Compound 5-ASA, 5-aminosalicylic acid], the “reduction of the free radical DPPH” value [1] is given as “about 85%” and the LD50 (rats) is given as 2800 mg/kg.
